Assay results reported in ChEMBL document CHEMBL1201862, “PubChem BioAssay data set” (2004).
Activity calls are given as the source filed them.

Legend:
[1] = molecular target: Ephrin type-A receptor 4 (Mus musculus, UniProt Q03137); test: inhibitors of EphA4 binding to KYL peptide, primary screen, biochemical, colorimetric, mouse EphA4 (AID 689); type: functional
[2] = molecular target: Cytochrome P450 2C9 (Homo sapiens, UniProt P11712)
[3] = molecular target: 5-hydroxytryptamine receptor 1A (Homo sapiens, UniProt P08908); type: functional
[4] = molecular target: T1, Estrogen receptor beta (Homo sapiens, UniProt Q92731);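 also: recombinant ER-beta bound to coactivator SRC1 peptide in presence of estradiol agonist; inhibitors block coactivator peptide binding and lower the FRET signal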
[5] = molecular target: T1, Estrogen receptor beta; test: ERβ–SRC-3 coactivator interaction inhibitors, confirmation, orthogonal assay, biochemical, ELISA, streptavidin-HRP readout (AID 1060)
[6] = molecular target: Induced myeloid leukemia cell differentiation protein Mcl-1 (Homo sapiens, UniProt Q07820); type: functional
[7] = molecular target: Eukaryotic translation initiation factor 4E (Mus musculus, UniProt P63073); test: eIF4E–eIF4G protein interaction inhibitors, dose response, biochemical, TR-FRET (AID 855); type: functional;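 also: potency for disrupting eIF4E binding to eIF4GI seen as loss of FRET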
[8] = molecular target: T2, Carboxy-terminal domain RNA polymerase II polypeptide A small phosphatase 1 (Homo sapiens, UniProt Q9GZU7); test: inhibitors of CTDSP1, concentration-response testing, biochemical assay, absorbance-based, actives from ultra-high-throughput screening (AID 540297); type: functional
T2 sequence (Q9GZU7 whole entry): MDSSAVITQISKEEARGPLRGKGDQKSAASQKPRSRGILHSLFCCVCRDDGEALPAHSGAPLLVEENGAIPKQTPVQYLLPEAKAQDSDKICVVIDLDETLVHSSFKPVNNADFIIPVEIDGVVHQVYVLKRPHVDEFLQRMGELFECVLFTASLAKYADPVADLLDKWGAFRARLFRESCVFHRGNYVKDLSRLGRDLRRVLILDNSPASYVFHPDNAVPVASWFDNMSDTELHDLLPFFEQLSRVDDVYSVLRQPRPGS

[9] = molecular target: DNA (cytosine-5)-methyltransferase 1 (Homo sapiens, UniProt P26358); test: DNMT1 methyltransferase inhibitors, confirmation, biochemical, fluorescent molecular beacon (AID 602386); type: functional
[10] = molecular target: T3, Rac GTPase-activating protein 1 (Homo sapiens, UniProt Q9H0H5); test: MgcRacGAP GTPase-activating activity inhibitors, confirmation, biochemical, ADP Hunter fluorescence, primary and confirmatory (AID 624330); type: functional
T3 sequence (Q9H0H5 whole entry): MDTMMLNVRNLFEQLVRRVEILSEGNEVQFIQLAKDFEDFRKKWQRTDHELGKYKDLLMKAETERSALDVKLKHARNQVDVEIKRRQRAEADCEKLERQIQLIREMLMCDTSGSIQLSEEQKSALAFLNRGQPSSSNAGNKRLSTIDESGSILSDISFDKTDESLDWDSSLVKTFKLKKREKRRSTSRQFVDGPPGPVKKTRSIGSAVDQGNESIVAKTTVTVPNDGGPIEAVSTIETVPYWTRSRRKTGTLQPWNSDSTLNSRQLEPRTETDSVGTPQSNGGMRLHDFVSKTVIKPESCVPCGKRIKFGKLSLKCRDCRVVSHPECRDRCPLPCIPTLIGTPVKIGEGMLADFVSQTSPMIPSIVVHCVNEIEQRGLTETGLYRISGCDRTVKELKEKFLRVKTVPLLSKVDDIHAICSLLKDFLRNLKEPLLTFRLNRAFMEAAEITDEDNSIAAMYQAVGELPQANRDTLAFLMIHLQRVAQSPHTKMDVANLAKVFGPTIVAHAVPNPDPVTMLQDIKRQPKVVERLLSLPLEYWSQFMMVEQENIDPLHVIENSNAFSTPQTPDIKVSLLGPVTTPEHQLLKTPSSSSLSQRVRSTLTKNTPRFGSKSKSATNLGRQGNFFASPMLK

[11] = insulin promoter down-regulators in MIN6 cells, imaging, high-content screening, mouse beta cells (AID 1628); type: functional
[12] = cytotoxicity in MIN6 insulinoma cells, dose response, cytotoxicity control, cell-based, mouse insulinoma (AID 2122); type: functional;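 also: confirmatory high-throughput counterscreen run to flag cytotoxic compounds; mouse MIN-6 beta cells carrying an insulin promoter eGFP reporter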
[13] = Luminescence-based dose response cell-based high throughput screening assay for cytotoxic compounds using the IEC-6 intestinal epithelial cell line. [Related pubchem assays: 1858 (Summary AID.), 1825 (Counterscreen.), 1907 (Confirmation screen.)]; type: functional
[14] = Luminescent dose response cell-based high throughput screening assay for inhibitors of the Janus kinase 2 mutant JAK2V617F. [Related pubchem assays: 1446 (Primary screen.), 1521 (Confirmation assay.), 1486 (Counter screen.)]; type: functional
[15] = molecular target: T4, Sphingosine 1-phosphate receptor 4 (Homo sapiens, UniProt O95977); test: Late stage fluorescence dose response cell-based screening assay for antagonists of the Sphingosine 1-Phosphate Receptor 4 (S1P4). [Related pubchem assays: 1524 (Confirmation screen (S1P4 antagonists).), 1510 (Primary screen (S1P4 antagonists).), 1853 (Summary AID (S1P4 antagonists).), 1692 (Dose response screen (S1P4 antagonists).)]; type: functional
T4 sequence (O95977 whole entry): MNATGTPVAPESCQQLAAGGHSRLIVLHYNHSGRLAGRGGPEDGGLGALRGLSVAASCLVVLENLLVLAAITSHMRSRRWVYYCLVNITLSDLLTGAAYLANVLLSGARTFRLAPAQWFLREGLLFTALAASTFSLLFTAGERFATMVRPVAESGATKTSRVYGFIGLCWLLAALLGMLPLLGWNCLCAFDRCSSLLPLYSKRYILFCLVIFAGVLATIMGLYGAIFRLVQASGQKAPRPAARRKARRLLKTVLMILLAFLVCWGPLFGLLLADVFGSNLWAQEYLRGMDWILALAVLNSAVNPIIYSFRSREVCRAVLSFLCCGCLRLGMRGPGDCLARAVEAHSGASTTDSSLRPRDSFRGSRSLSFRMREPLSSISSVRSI

[16] = molecular target: T4, Sphingosine 1-phosphate receptor 4; test: Fluorescence dose response cell-based high throughput screening assay for antagonists of the Sphingosine 1-Phosphate Receptor 4 (S1P4). [Related pubchem assays: 1524 (Confirmation in triplicates.), 1510 (Primary screen.)]; type: functional
[17] = molecular target: Sphingosine 1-phosphate receptor 1 (Homo sapiens, UniProt P21453); type: functional;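 also: Tango beta-arrestin reporter U2OS cells stimulated with S1P near its EC80; inhibitor potency meaning antagonism of receptor activation by the natural agonist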
[18] = molecular target: T5, Replicative DNA helicase DnaB (Mycobacterium tuberculosis, UniProt P9WMR3); test: DnaB intein splicing inhibitors, dose response, biochemical, cell-free fluorescence (AID 449749); type: functional
T5 sequence (P9WMR3 whole entry): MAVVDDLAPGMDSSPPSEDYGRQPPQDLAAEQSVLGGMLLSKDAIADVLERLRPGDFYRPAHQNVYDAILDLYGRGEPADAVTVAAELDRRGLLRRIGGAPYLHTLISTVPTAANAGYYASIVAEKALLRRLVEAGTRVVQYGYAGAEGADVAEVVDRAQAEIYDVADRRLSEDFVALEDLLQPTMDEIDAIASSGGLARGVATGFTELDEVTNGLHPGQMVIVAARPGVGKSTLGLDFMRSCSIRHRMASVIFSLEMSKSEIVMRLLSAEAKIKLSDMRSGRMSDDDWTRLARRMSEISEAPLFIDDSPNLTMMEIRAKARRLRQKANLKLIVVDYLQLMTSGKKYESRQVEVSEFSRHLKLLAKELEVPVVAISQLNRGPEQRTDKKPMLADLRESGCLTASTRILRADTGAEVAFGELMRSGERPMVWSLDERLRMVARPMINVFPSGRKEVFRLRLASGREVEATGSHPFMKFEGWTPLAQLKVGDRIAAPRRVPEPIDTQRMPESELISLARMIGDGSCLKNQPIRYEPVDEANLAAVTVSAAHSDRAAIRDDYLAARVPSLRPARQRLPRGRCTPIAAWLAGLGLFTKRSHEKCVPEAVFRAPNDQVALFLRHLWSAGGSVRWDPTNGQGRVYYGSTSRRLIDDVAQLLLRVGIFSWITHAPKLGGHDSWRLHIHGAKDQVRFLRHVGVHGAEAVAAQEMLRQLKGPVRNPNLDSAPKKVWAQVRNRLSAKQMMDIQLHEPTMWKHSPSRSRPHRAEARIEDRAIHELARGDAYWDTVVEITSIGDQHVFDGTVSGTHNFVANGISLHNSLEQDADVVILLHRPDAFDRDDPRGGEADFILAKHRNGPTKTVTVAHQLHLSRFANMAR

[19] = molecular target: Heat shock protein HSP 90-alpha (Homo sapiens, UniProt P07900); type: functional, organism-based
[20] = molecular target: T6, Protein RecA (Mycobacterium tuberculosis, UniProt P9WHJ3); test: Fluorescence Cell-Free Homogeneous Dose Retest to Identify Inhibitors of RecA-Intein Splicing Activity. [Related pubchem assays (depositor defined):AID2097, AID2223, AID489010, AID492950]; type: functional
T6 sequence (P9WHJ3 whole entry): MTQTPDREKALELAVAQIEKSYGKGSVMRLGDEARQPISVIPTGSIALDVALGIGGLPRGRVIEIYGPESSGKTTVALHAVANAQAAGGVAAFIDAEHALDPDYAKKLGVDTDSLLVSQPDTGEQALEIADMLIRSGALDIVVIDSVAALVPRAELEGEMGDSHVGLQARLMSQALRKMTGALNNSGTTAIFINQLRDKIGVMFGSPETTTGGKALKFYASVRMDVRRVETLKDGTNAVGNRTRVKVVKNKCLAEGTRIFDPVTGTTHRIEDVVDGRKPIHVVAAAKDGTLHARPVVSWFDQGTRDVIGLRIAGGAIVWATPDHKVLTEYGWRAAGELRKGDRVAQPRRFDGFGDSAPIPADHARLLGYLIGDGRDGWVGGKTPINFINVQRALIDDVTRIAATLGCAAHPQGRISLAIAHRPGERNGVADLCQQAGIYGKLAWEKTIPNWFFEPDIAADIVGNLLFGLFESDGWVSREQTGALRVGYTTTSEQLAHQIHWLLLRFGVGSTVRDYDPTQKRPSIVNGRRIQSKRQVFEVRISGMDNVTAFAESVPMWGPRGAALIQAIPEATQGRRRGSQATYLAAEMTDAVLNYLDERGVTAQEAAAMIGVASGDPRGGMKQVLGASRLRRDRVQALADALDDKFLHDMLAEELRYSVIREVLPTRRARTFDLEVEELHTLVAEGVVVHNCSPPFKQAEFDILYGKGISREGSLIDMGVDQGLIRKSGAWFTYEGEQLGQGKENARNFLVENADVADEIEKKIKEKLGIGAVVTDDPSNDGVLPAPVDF

[21] = test system: INS1; test: beta cell apoptosis inhibitors, cytokine rescue, dose response, luminescence, retest (AID 449756); type: functional, cell-based; conditions: Rattus norvegicus;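 also: cell death triggered by IL-1 beta plus TNF-alpha plus IFN-gamma mixture; protective hits raise ATP signal compared with cytokine alone wells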
[22] = Shn3 3'UTR reporter inhibitors, dose response, cell-based, Clone20 osteoblasts, firefly luciferase, cherry-picked (AID 624132); type: functional;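 also: firefly luciferase luminescence from reporter carrying the Shn3 3'UTR in osteoblasts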
[23] = HepG2 cell cytotoxicity, dose response, cytotoxicity control for Shn3 inhibitor project, CellTiter-Glo, cherry-picked (AID 624134); type: functional, cell-based
[24] = control 3'UTR Renilla luciferase suppression, dose response, counter-screen for Shn3 inhibitor project, cell-based, Clone20-Shn3RL, cherry-picked (AID 624133); type: functional
[25] = molecular target: T7, Fatty acid synthase (Homo sapiens, UniProt P49327); test: FAS thioesterase domain inhibitors, dose response, biochemical, endpoint fluorescence intensity, uHTS hits (AID 624327); type: functional;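 also: fluorescence from hydrolysis of an O-methyl fluorescein acyl ester substrate by the enzyme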
[26] = molecular target: T7, Fatty acid synthase; test: FAS thioesterase domain inhibitors, dose response, biochemical, kinetic fluorescence intensity (AID 624326); type: functional;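 also: rate of fluorescence rise from hydrolysis of a fluorogenic O-methyl fluorescein ester substrate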

T7 sequence (P49327 whole entry, the tested form may be a part): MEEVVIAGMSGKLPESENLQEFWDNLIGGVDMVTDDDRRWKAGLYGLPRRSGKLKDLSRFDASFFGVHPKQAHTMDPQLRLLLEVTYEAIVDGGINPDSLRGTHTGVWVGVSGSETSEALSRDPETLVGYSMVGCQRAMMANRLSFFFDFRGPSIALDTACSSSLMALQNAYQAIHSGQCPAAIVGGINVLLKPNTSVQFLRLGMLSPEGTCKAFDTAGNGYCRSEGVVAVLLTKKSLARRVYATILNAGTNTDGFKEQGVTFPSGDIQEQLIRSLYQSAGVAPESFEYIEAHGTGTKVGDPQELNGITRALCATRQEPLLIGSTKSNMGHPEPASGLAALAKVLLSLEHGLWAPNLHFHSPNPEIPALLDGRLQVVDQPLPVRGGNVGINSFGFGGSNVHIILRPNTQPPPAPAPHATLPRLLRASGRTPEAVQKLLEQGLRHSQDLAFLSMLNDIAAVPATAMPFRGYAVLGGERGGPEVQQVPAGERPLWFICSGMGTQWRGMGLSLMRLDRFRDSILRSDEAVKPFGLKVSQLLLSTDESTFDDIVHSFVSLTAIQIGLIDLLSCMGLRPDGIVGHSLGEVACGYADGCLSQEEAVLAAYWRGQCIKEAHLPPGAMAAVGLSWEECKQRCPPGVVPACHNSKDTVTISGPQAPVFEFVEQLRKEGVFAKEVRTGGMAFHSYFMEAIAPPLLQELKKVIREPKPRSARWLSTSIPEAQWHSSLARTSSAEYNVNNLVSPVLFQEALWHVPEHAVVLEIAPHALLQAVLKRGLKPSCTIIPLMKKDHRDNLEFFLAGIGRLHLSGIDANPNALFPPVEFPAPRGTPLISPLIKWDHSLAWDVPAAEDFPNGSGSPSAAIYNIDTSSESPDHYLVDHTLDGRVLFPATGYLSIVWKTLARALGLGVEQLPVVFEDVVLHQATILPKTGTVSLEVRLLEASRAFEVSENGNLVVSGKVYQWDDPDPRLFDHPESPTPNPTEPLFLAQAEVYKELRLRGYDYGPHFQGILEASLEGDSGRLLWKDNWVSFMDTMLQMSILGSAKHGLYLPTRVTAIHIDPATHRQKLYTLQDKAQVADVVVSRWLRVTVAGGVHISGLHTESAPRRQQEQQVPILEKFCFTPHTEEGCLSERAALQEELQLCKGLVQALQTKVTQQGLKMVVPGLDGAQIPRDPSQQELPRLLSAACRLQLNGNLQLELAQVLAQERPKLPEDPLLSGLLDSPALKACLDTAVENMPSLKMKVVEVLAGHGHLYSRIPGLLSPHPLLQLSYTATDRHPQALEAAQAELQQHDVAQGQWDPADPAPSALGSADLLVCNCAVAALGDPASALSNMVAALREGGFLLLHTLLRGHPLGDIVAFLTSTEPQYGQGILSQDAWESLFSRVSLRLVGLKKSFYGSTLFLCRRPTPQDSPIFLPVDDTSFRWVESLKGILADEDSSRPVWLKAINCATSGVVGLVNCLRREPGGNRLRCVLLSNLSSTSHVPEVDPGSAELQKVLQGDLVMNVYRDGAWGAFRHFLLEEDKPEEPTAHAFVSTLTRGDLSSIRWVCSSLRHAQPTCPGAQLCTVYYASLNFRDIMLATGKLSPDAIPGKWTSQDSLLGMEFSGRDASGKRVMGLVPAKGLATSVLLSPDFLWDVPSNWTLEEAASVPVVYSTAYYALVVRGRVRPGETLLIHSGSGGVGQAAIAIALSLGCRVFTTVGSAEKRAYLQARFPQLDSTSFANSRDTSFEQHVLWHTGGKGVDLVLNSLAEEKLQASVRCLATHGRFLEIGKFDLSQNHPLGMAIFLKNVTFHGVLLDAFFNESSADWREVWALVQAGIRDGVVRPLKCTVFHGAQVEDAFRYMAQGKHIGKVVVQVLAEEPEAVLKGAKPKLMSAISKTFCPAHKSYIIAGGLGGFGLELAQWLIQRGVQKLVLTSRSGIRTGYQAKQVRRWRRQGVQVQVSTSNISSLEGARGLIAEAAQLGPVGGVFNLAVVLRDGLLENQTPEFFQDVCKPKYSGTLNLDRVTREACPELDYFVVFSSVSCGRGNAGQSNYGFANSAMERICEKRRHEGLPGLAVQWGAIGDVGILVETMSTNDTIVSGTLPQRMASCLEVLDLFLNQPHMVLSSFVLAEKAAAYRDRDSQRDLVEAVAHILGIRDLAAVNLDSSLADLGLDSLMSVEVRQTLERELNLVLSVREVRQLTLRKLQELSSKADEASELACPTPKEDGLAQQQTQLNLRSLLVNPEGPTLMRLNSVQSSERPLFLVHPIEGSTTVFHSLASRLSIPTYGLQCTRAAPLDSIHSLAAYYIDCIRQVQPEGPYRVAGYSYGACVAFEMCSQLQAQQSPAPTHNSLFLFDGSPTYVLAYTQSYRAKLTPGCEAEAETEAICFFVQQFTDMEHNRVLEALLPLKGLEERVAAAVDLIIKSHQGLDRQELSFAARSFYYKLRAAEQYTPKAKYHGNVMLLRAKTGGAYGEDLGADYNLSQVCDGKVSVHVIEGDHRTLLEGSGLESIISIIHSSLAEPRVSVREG
Ephrin type-A receptor 4, sequence (Q03137 whole entry): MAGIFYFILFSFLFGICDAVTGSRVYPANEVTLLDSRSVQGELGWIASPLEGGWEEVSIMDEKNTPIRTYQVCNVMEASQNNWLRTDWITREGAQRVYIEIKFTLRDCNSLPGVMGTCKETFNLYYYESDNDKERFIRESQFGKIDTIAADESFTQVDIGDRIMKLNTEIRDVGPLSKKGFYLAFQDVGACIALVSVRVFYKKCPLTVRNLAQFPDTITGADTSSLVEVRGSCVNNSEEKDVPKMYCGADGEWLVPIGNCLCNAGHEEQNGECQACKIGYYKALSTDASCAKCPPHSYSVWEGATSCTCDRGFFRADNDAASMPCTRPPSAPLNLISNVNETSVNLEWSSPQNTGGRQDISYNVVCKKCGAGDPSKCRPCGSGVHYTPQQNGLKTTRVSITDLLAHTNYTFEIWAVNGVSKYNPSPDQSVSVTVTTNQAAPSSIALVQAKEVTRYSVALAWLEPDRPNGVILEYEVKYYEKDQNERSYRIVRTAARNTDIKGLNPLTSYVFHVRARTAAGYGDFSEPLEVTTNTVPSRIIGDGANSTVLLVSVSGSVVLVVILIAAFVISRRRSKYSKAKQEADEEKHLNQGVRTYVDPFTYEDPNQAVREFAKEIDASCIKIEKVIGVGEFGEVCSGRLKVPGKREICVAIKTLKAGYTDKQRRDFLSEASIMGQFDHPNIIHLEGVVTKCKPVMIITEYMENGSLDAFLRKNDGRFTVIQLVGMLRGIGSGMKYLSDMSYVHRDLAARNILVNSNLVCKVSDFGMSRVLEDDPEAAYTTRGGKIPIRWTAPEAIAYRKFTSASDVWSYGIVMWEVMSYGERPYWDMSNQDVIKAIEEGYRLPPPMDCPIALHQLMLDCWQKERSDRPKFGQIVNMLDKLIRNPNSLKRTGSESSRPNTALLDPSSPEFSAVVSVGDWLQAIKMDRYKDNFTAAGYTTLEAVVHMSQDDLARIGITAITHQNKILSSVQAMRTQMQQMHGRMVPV
T1 sequence (Q92731 whole entry): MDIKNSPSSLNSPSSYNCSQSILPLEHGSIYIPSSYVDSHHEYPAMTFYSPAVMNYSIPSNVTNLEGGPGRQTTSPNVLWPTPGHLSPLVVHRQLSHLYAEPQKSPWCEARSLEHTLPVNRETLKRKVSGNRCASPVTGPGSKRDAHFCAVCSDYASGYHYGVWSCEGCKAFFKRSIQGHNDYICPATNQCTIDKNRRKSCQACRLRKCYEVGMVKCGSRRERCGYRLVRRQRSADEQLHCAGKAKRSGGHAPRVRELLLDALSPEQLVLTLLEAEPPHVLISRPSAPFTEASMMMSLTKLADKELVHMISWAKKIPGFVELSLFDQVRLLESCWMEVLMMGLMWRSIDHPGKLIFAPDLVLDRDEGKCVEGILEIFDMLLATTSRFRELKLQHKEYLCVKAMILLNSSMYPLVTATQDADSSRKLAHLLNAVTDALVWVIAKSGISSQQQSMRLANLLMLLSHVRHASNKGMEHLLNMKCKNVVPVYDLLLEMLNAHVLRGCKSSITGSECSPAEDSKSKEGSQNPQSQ
Sphingosine 1-phosphate receptor 1, sequence (P21453 whole entry): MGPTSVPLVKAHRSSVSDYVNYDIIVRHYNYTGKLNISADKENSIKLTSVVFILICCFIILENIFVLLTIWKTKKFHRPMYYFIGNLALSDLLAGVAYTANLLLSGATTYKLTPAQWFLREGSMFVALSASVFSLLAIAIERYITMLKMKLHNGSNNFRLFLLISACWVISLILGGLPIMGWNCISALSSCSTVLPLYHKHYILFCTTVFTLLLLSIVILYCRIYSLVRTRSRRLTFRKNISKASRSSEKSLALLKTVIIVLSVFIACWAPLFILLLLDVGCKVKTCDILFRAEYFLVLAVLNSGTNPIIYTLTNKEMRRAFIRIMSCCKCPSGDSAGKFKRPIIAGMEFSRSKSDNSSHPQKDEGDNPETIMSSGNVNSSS
Cytochrome P450 2C9, sequence (P11712 whole entry): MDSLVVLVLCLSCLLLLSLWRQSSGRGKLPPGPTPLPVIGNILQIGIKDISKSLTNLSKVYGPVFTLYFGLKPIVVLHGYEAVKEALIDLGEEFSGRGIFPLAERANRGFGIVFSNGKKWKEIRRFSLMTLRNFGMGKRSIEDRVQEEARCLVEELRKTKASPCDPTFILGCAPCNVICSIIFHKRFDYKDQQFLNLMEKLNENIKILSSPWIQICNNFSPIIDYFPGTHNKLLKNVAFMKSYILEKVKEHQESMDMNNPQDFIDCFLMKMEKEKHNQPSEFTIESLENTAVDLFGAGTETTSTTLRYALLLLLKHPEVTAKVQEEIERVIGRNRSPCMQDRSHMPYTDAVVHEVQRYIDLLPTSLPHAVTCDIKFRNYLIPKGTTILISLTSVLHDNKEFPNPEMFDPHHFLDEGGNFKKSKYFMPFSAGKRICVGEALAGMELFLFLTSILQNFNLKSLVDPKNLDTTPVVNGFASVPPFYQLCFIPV

In the case of `O=C(Nc1cccc2ccccc12)/C(=C/c1ccc([N+](=O)[O-])cc1)NC(=O)c1ccccc1`, the IC50 [1] is reported as 11.4 µM (active) and the AC50 [2] is reported as 5.01 µM (inconclusive).

With `COc1ccc(CN2CCN(c3ccccc3F)CC2)c(OC)c1` the EC50 [3] was > 50 µM (not active).

For `COc1ccc(Cc2nnc(NC(=O)Cc3cccs3)s2)cc1`, the IC50 [4] was < 1.56 µM (active), the IC50 [5] was 72.5 nM (not active) and the IC50 [1] was 13.6 µM (active). For the same compound, the IC50 [6] was 1.59 µM (active), the IC50 [7] was 16.9 µM (active) and the IC50 [8] was 2.82 µM (active). The IC50 [9] was 4.47 µM (active) and the IC50 [10] was 52 µM (active).

In the case of `OC1=C2C(=Nc3cc4c(cc3C2c2ccc(F)cc2)OCO4)CO1` (configuration not stated), the IC50 [11] is reported as 1.32 µM (active), the IC50 [12] is reported as < 250 nM (active) and the IC50 [13] is reported as 112 nM (active).

In the case of `Cc1ccccc1CS(=O)(=O)c1nnc([C@H](Cc2ccccc2)NC(=O)OC(C)(C)C)o1`, the IC50 [14] is reported as 695 nM (active), the IC50 [15] is reported as 3.49 µM (not active) and the IC50 [16] is reported as 1.69 µM (active). For the same compound, the IC50 [17] was > 49.8 µM (not active), the AC50 [18] was 3.51 µM (active) and the AC50 [19] was 24.1 µM (active). For the same compound, the EC50 [20] was 8.54 µM (active), the AC50 [21] was 8.99 µM (active) and the AC50 [22] was 1.23 µM (active). For the same compound, the AC50 [23] was > 70 µM (inactive), the AC50 [24] was 8.32 µM (active) and the IC50 [25] was 6.74 µM (active). For the same compound, the IC50 [26] was 8.22 µM (active).
